Laboratory results published in patent US10294248B2, “Beta-lactamase inhibitors” (VenatoRx Pharmaceuticals, Inc., priority 2013, dated 2019).

Legend:
[1] = biological target: T1, SHV-5 β-lactamase (Class A ESBL) (Klebsiella pneumoniae, UniProt P0A3M1); experiment: β-Lactamase inhibition, SHV-5; format: biochemical
T1 construct: made in house; host or cells: E. coli BL21(DE3)
How it was run: (§1)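 IC50 is the inhibitor level cutting initial substrate hydrolysis rate by 50% relative to no-inhibitor controls, after 15 min enzyme–inhibitor preincubation at 37 °C. KPC-2 read with imipenem at 300 nm, SHV-5 with cefotaxime at 260 nm; enzymes were untagged, E. coli-expressed, chromatographically purified.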

[2] = biological target: T2, VIM-2 metallo-β-lactamase (Class B) (Pseudomonas aeruginosa, UniProt Q9K2N0); experiment: β-Lactamase inhibition, VIM-2; format: biochemical; conditions: nitrocefin 100 μM, 486 nm; 15 min preincubation at 37° C., PBS pH 7.4
T2 construct: made in house; host or cells: E. coli BL21(DE3)
How it was run: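 First, VIM-2 purified by repeated anion exchange at pH 7.5 is mixed with inhibitor and held 15 min at 37 °C. Next, nitrocefin (final 100 μM) is dispensed and absorbance at 486 nm monitored immediately for 10 min. Rates versus uninhibited controls give IC50.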

[3] = test system: K. pneumoniae A-1797 expressing KPC-2 and VIM-4; experiment: Broth microdilution MIC, K. pneumoniae A-1797 KPC-2/VIM-4; format: cell-based; conditions: fixed 4 μg/mL meropenem; CAMHB, 16-20 hours at 37° C.
How it was run: (§2)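 Strains were grown 3-5 h in cation-adjusted Mueller Hinton broth, then inoculated per CLSI into plates holding compound dilutions (32 to 0.25 μg/ml, 2-fold) plus a β-lactam fixed at 4 μg/ml. Plates were incubated 16-20 h at 37° C before visual MIC reading.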

[4] = biological target: T3, OXA-1 β-lactamase (Class D oxacillinase) (Escherichia coli, UniProt P13661); experiment: β-Lactamase inhibition, OXA-1; format: biochemical; conditions: nitrocefin 100 μM, 486 nm; 15 min preincubation at 37° C., PBS pH 7.4
T3 construct: made in house; host or cells: E. coli BL21(DE3)
T3 sequence (P13661 26-276): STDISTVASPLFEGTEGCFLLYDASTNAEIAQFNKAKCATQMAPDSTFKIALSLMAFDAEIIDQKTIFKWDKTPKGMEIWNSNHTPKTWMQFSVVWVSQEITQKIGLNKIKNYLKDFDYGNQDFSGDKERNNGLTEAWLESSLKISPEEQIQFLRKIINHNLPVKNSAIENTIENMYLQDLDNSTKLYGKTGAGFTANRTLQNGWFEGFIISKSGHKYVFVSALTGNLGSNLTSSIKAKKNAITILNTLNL
How it was run: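 Compounds are mixed with purified, untagged recombinant β-lactamase and held 15 min at 37 °C. Substrate is then added: nitrocefin (100 μM final) for OXA-1, imipenem for KPC-2, cefotaxime for SHV-5. Absorbance is followed immediately, and percent inhibition per concentration gives the IC50.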

[5] = test system: S. aureus MSSA-7 producing penicillinase PC-1; experiment: Broth microdilution MIC, S. aureus MSSA-7 PC-1; format: cell-based; conditions: fixed 4 μg/mL piperacillin; CAMHB, 16-20 hours at 37° C.
How it was run: as §2

[6] = test system: E. coli ESBL4 expressing CTX-M-15; experiment: Broth microdilution MIC, E. coli ESBL4 CTX-M-15; format: cell-based; conditions: fixed 4 μg/mL ceftazidime; CAMHB, 16-20 hours at 37° C.
How it was run: as §2

[7] = test system: P. aeruginosa Ps296 expressing VIM-2; experiment: Broth microdilution MIC, P. aeruginosa Ps296 VIM-2; format: cell-based; conditions: fixed 4 μg/mL meropenem; CAMHB, 16-20 hours at 37° C.
How it was run: as §2

[8] = test system: K. pneumoniae 156319 expressing KPC-3; experiment: Broth microdilution MIC, K. pneumoniae 156319 KPC-3; format: cell-based; conditions: fixed 4 μg/mL meropenem; CAMHB, 16-20 hours at 37° C.
How it was run: as §2

[9] = test system: E. cloacae 144200 expressing Class C P99 AmpC; experiment: Broth microdilution MIC, E. cloacae 144200 p99 AmpC; format: cell-based; conditions: fixed 4 μg/mL ceftazidime; CAMHB, 16-20 hours at 37° C.
How it was run: as §2

[10] = biological target: T4, KPC-2 β-lactamase (Class A carbapenemase) (Klebsiella pneumoniae, UniProt Q9F663); experiment: β-Lactamase inhibition, KPC-2; format: biochemical; conditions: imipenem substrate, 300 nm; 15 min preincubation at 37° C., PBS pH 7.4
T4 construct: made in house; host or cells: E. coli BL21(DE3)
T4 sequence (Q9F663 25-293, looked up): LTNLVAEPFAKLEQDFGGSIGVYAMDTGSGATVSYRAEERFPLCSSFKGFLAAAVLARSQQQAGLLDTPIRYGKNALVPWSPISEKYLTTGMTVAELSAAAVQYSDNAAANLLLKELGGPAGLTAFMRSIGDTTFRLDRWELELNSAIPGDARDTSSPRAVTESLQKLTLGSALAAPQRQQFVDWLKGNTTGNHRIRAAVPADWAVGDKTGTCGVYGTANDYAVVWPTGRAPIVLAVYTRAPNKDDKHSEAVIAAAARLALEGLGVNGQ
How it was run: as §1

[11] = biological target: T5, p99 AmpC β-lactamase (Class C) (Enterobacter cloacae, UniProt P05364); experiment: β-Lactamase inhibition, p99 AmpC; format: biochemical
T5 construct: made in house; host or cells: E. coli BL21(DE3)
T5 sequence (P05364 21-381): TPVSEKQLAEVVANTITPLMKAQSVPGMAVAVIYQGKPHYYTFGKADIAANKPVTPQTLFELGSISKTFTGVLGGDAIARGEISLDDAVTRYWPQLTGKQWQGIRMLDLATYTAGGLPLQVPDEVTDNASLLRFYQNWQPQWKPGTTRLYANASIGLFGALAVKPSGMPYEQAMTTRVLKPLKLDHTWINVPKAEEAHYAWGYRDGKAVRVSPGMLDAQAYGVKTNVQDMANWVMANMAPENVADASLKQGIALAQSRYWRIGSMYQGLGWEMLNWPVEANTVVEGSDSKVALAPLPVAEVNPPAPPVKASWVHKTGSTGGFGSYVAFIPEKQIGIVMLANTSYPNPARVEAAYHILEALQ

T1 sequence (P0A3M1 22-286): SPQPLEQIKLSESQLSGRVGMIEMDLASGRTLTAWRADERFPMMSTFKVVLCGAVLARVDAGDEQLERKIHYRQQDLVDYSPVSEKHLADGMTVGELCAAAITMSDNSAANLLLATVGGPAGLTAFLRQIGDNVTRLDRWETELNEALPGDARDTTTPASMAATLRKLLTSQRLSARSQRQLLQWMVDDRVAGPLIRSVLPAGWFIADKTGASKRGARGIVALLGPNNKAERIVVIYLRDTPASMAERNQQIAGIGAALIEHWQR

Structure (SMILES)	IC50 [1] [nM]	IC50 [2] [nM]	MIC of example compound in presence of fixed β-lactam: Fixed Mero, K. P. A-1797 KPC-2 VIM-4 [3]	IC50 [4] [nM]	MIC of example compound in presence of fixed β-lactam: Fixed Pip, S. aureus MSSA-7 PC-1 [5]	MIC of example compound in presence of fixed β-lactam: Fixed CAZ, E. coli ESBL4 CTX-M-15 [6]	MIC of example compound in presence of fixed β-lactam: Fixed Mero, P. aerug. Ps296 VIM-2 [7]	MIC of example compound in presence of fixed β-lactam: Fixed Mero, K. P. 156319 KPC-3 [8]	MIC of example compound in presence of fixed β-lactam: Fixed CAZ, E. cl. 144200 p99 AmpC [9]	IC50 [10] [nM]	IC50 [11] [nM]
O=C(O)CN1CCN(CC(=O)N[C@H]2Cc3cccc(C(=O)O)c3OB2O)CC1 [Example 25, 3-[2-(4-Carboxymethyl-piperazin-1-yl)-acetylamino]-2-hydroxy-3,4-dihydro-2H-benzo[e][1,2]oxaborinine-8-carboxylic acid]	< 100	10000 to 100000	B (the MIC in the presence of between 8 and 32 μg/mL of a β-lactamase inhibitor)	< 100	C (the MIC in the presence of <4 μg/mL of a β-lactamase inhibitor)	C (the MIC in the presence of <4 μg/mL of a β-lactamase inhibitor)	B (the MIC in the presence of between 8 and 32 μg/mL of a β-lactamase inhibitor)	B (the MIC in the presence of between 8 and 32 μg/mL of a β-lactamase inhibitor)	C (the MIC in the presence of <4 μg/mL of a β-lactamase inhibitor)	100 to 1000	< 100
NC1CN(CC(=O)N[C@H]2Cc3cccc(C(=O)O)c3OB2O)CCC1O (stereo partly drawn) [Example 26, 3-[2-(3-Amino-4-hydroxy-piperidin-1-yl)-acetylamino]-2-hydroxy-3,4-dihydro-2H-benzo[e][1,2]oxaborinine-8-carboxylic acid]	100 to 1000	10000 to 100000	C (the MIC in the presence of <4 μg/mL of a β-lactamase inhibitor)	100 to 1000	A (an MIC of the fixed β-lactam antibiotic in the presence of >32 μg/mL of a β-lactamase inhibitor)	C (the MIC in the presence of <4 μg/mL of a β-lactamase inhibitor)	C (the MIC in the presence of <4 μg/mL of a β-lactamase inhibitor)	C (the MIC in the presence of <4 μg/mL of a β-lactamase inhibitor)	C (the MIC in the presence of <4 μg/mL of a β-lactamase inhibitor)	100 to 1000	< 100
NCCC(=O)NC1CCN(CC(=O)N[C@H]2Cc3cccc(C(=O)O)c3OB2O)CC1 [Example 27, 3-{2-[4-(3-Amino-propionylamino)-piperidin-1-yl]-acetylamino}-2-hydroxy-3,4-dihydro-2H-benzo[e][1,2]oxaborinine-8-carboxylic acid]	100 to 1000	10000 to 100000	B (the MIC in the presence of between 8 and 32 μg/mL of a β-lactamase inhibitor)	100 to 1000	A (an MIC of the fixed β-lactam antibiotic in the presence of >32 μg/mL of a β-lactamase inhibitor)	C (the MIC in the presence of <4 μg/mL of a β-lactamase inhibitor)	B (the MIC in the presence of between 8 and 32 μg/mL of a β-lactamase inhibitor)	B (the MIC in the presence of between 8 and 32 μg/mL of a β-lactamase inhibitor)	B (the MIC in the presence of between 8 and 32 μg/mL of a β-lactamase inhibitor)	100 to 1000	< 100
NC1CCN(CC(=O)N[C@H]2Cc3cccc(C(=O)O)c3OB2O)CC1N (stereo partly drawn) [Example 28, 3-[2-(3,4-Diamino-piperidin-1-yl)-acetylamino]-2-hydroxy-3,4-dihydro-2H-benzo[e][1,2]oxaborinine-8-carboxylic acid]	10000 to 100000	10000 to 100000	B (the MIC in the presence of between 8 and 32 μg/mL of a β-lactamase inhibitor)	< 100	C (the MIC in the presence of <4 μg/mL of a β-lactamase inhibitor)	C (the MIC in the presence of <4 μg/mL of a β-lactamase inhibitor)	C (the MIC in the presence of <4 μg/mL of a β-lactamase inhibitor)	C (the MIC in the presence of <4 μg/mL of a β-lactamase inhibitor)	C (the MIC in the presence of <4 μg/mL of a β-lactamase inhibitor)	< 100	< 100
NCC1CN(CC(=O)N[C@H]2Cc3cccc(C(=O)O)c3OB2O)CCC1N (stereo partly drawn) [Example 29, 3-[2-(4-Amino-3-aminomethyl-piperidin-1-yl)-acetylamino]-2-hydroxy-3,4-dihydro-2H-benzo[e][1,2]oxaborinine-8-carboxylic acid]	1000 to 10000	10000 to 100000	B (the MIC in the presence of between 8 and 32 μg/mL of a β-lactamase inhibitor)	100 to 1000	C (the MIC in the presence of <4 μg/mL of a β-lactamase inhibitor)	C (the MIC in the presence of <4 μg/mL of a β-lactamase inhibitor)	C (the MIC in the presence of <4 μg/mL of a β-lactamase inhibitor)	C (the MIC in the presence of <4 μg/mL of a β-lactamase inhibitor)	C (the MIC in the presence of <4 μg/mL of a β-lactamase inhibitor)	100 to 1000	100 to 1000
NCCNC1CCN(CC(=O)N[C@H]2Cc3cccc(C(=O)O)c3OB2O)CC1 [Example 30, 3-{2-[4-(2-Amino-ethylamino)-piperidin-1-yl]-acetylamino}-2-hydroxy-3,4-dihydro-2H-benzo[e][1,2]oxaborinine-8-carboxylic acid]	< 100	1000 to 10000	A (an MIC of the fixed β-lactam antibiotic in the presence of >32 μg/mL of a β-lactamase inhibitor)	< 100	A (an MIC of the fixed β-lactam antibiotic in the presence of >32 μg/mL of a β-lactamase inhibitor)	C (the MIC in the presence of <4 μg/mL of a β-lactamase inhibitor)	B (the MIC in the presence of between 8 and 32 μg/mL of a β-lactamase inhibitor)	C (the MIC in the presence of <4 μg/mL of a β-lactamase inhibitor)	C (the MIC in the presence of <4 μg/mL of a β-lactamase inhibitor)	< 100	< 100
